# Measured values from US20230104671A1, “METHODS AND COMPOSITIONS FOR TREATING CARDIOMYOPATHY AND HEART FAILURE” (Ann and Robert H. Lurie Children's Hospital of Chicago, priority 2021, published 2023).
# Tested on: Egln1^Tie2Cre mice
# Assay: C76 treatment of Egln1Tie2Cre mice: LV hypertrophy and cardiac fibrosis
# Type: in vivo
# Conditions: 3 week-old Egln1^Tie2Cre mice treated for 11 weeks
# Description: Egln1^Tie2Cre mice, Egln1/Hif1a^Tie2Cre and Egln1/Hif2a^Tie2Cre double knockout mice were generated as described previously^16. Egln1^EndoCreERT2 mice were generated by crossing Egln1 floxed mice with EndoSCL-CreERT2 transgenic mice expressing the tamoxifen-inducible Cre recombinase under the control of the 5′ endothelial enhancer of the stem cell leukemia locus^23. At 8 weeks of age, Egln1^EndoCreERT2 and Egln1^f/f mice were treated with 2 mg tamoxifen intraperitoneally for 5 days to induced Egln1 deletion only in ECs. Mice were scarified at the age of ˜9 months. Both male and female mice were used in these studies. The use of animals was in compliance with the guidelines of the Animal Care and Use Committee of the Northwestern University and of the University of Arizona.
# For Wheat Germ Agglutinin (WGA) staining, WGA conjugated with FITC or WGA conjugated with Alexa 647 were stained with cryosectioned slides at room temple for 10 mins.
# For histological assessment, hearts were harvested and washed with PBS, followed by fixation in 4% formalin and dehydrated in 70% ethanol. After paraffin processing, the tissues were cut into semi-thin […] thick sections. Sections were stained with H & E staining or Masson's trichrome kit as a service of charge at Core Facility.
# To assess the therapeutic potential of HIF-2α inhibition for cardiomyopathy, we treated 3 week-old Egln1^Tie2Cre mice with the HIF-2α translation inhibitor C76^31,35 for 11 weeks.
smiles,measurement,setting,value
"COC(=O)c1sccc1N/N=C(\C#N)S(C)(=O)=O [C76, methyl 3-[(2E)-2-[cyano(methylsulfonyl)methylidene]hydrazinyl]thiophene-2-carboxylate]",cardiomyocyte surface area assessed by WGA staining,FIGS. 10B and 10C,significantly attenuated
same,perivascular fibrosis by trichrome staining,FIGS. 10D and 10E,significantly attenuated
same,LV/BW ratio (LV hypertrophy),"compared to vehicle treatment, cardiac dissection (FIG. 10A)",decreased
